Laboratory results as given in patent US9303015B2, “Heteroaryl linked quinolinyl modulators of RORγt” (Janssen Pharmaceutica NV, priority 2012, dated 2016).
Where a name gives a salt, the structure may show the parent alone.

What follows are molecules tested against human RORγt LBD (Homo sapiens (Human), UniProt P51449) (assay: RORγt reporter assay (GAL4-RORγt LBD luciferase, HEK293T cells)). Conditions: 6 μM, HEK293T cells.
Assay type: cell-based
Excerpt: A reporter assay was used to test functional activity of RORγt modulatory compounds on transcriptional activation driven by the RORγt LBD. Cells used in the assay were co-transfected with two constructs. The first construct, pBIND-RORγt LBD, contained the wild type human RORγt LBD fused to the DNA binding domain of the GAL4 protein. The second construct, pGL4.31 (Promega Cat no. C935A), contained multiple GAL4 responsive DNA elements upstream of firefly luciferase. […] The mutant construct was called pBIND-RORγt-AF2. […] The pBIND vector contains the GAL4 DNA Binding Domain (GAL4 DBD) and the renilla luciferase gene under control of the SV40 promoter. Renilla luciferase expression serves as a control for transfection efficiency and cell viability.
The reporter assay was performed by transiently transfecting HEK293T cells with 5 μg of pBIND-RORγt LBD or pBIND-RORγt LBD-AF2 and 5 μg pGL4.31 (Promega Cat no. C935A) using Fugene 6 (Invitrogen Cat no. E2691) at a 1:6 ratio of DNA: Fugene 6 in a T-75 flask in which cells were at least 80% confluent. Twenty four hours after bulk transfection, cells were plated into 96-well plates at 50,000 cells/well in phenol-red free DMEM containing 5% Lipid Reduced FCS and Pen/Strep. Six hours after plating, cells were treated with compounds for 24 hours. Media was removed and cells were lysed with 50 μL 1x Glo Lysis Buffer (Promega). Dual Glo Luciferase Reagent (50 μL/well) was then added and firefly luciferase luminescence was read on an Envision after a ten minute incubation. Finally, Stop and Glo reagent (50 μL/well) was added and renilla luciferase luminescence was read on an Envision after a ten minute incubation. To calculate the effect of compounds on RORγt activity, the ratio of firefly to renilla luciferase was determined and plotted against compound concentration. Agonist compounds increase RORγt-driven luciferase expression, and antagonist or inverse agonist compounds decrease luciferase expression.

Chain of human RORγt LBD (P51449 258-518): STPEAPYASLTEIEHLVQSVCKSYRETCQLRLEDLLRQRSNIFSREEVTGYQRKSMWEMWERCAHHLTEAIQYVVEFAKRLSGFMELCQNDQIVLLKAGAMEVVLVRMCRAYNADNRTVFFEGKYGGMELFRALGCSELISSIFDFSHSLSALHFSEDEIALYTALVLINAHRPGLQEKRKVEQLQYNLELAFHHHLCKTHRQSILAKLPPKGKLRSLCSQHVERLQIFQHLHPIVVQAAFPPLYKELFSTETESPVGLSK

Row | SMILES | RORγt reporter Assay, % inhibition @ 6 μM
1 | CCN(CC)c1nc2ccc(C(O)(c3ccc(Cl)cc3)c3cncn3C)cc2c(Cl)c1Oc1ccccc1 (single isomer, unassigned) [Example 3b, (4-Chloro-2-(diethylamino)-3-phenoxyquinolin-6-yl)(4-chlorophenyl)(1-methyl-1H-imidazol-5-yl)methanol] | 77%
2 | CCOc1nc2ccc(C(O)(c3ccc(C(F)(F)F)nc3)c3cncn3C)cc2c(Cl)c1Oc1ccc(F)cc1 (single isomer, unassigned) [Example 14b, (4-Chloro-2-ethoxy-3-(4-fluorophenoxy)quinolin-6-yl)(1-methyl-1H-imidazol-5-yl)(6-(trifluoromethyl)pyridin-3-yl)methanol] | 69%
3 | CCOc1nc2ccc(C(O)(c3ccc(C(F)(F)F)nc3)c3cncn3C)cc2c(Cl)c1Oc1ccc(F)cc1 (single isomer, unassigned) [Example 14c, (4-Chloro-2-ethoxy-3-(4-fluorophenoxy)quinolin-6-yl)(1-methyl-1H-imidazol-5-yl)(6-(trifluoromethyl)pyridin-3-yl)methanol] | 18%
4 | COc1nc2ccc(C(O)(c3ccc(Cl)cc3)c3cncn3C)cc2c(Cl)c1Oc1ccccc1 (single isomer, unassigned) [Example 15c, (4-Chloro-2-methoxy-3-phenoxyquinolin-6-yl)(4-chlorophenyl)(1-methyl-1H-imidazol-5-yl)methanol] | 82%
5 | CCOc1nc2ccc(C(O)(c3ccc(C(F)(F)F)nc3)c3cncn3C)cc2c(C(F)(F)F)c1Oc1ccc(Cl)cc1 (single isomer, unassigned) [Example 25c, (3-(4-Chlorophenoxy)-2-ethoxy-4-(trifluoromethyl)quinolin-6-yl)(1-methyl-1H-imidazol-5-yl)(6-(trifluoromethyl)pyridin-3-yl)methanol] | 67%

Same assay, conditions: HEK293T cells, 24 hours compound treatment

Row | SMILES | IC50
6 | Cn1cncc1C(O)(c1ccc(C(F)(F)F)nc1)c1ccc2nc(C#N)c(Oc3ccccc3)c(C#N)c2c1 (centres unmarked) [Example 22a, 6-(Hydroxy(1-methyl-1H-imidazol-5-yl)(6-(trifluoromethyl)pyridin-3-yl)methyl)-3-phenoxyquinoline-2,4-dicarbonitrile] | ~6 µM

Same assay, conditions: HEK-293T, read-out: RORγt reporter Assay, % inhibition @ 6 μM, 6 μM, HEK293T cells

Row | SMILES | inhibition at 6 µM
7 | COc1ccc(C(O)(c2ccc3nc(Cl)c(Oc4ccccc4)c(Cl)c3c2)c2cncn2C)cn1 (centres unmarked) [Example 4, (2,4-Dichloro-3-phenoxyquinolin-6-yl)(6-methoxypyridin-3-yl)(1-methyl-1H-imidazol-5-yl)methanol] | 92%
8 | COc1c(Oc2ccccc2)c(Cl)nc2ccc(C(O)(c3ccc(Cl)cc3)c3cncn3C)cc12 (centres unmarked) [Example 18, (2-Chloro-4-methoxy-3-phenoxyquinolin-6-yl)(4-chlorophenyl)(1-methyl-1H-imidazol-5-yl)methanol] | 88%
9 | Cn1cncc1C(O)(c1ccc(C(F)(F)F)nc1)c1ccc2nc(C#N)c(Oc3ccccc3)c(Cl)c2c1 (centres unmarked) [Example 21, 4-Chloro-6-(hydroxy(1-methyl-1H-imidazol-5-yl)(6-(trifluoromethyl)pyridin-3-yl)methyl)-3-phenoxyquinoline-2-carbonitrile.TFA] | 80%
10 | Cn1cncc1C(O)(c1ccc(Cl)cc1)c1ccc2nc(C#N)c(Oc3ccc(F)cc3)c(Cl)c2c1 (centres unmarked) [Example 23, 4-Chloro-6-((4-chlorophenyl)(hydroxy)(1-methyl-1H-imidazol-5-yl)methyl)-3-(4-fluorophenoxy)quinoline-2-carbonitrile.TFA] | 80%
11 | Cn1cncc1C(O)(c1ccc(C(F)(F)F)nc1)c1ccc2nc(C#N)c(Oc3ccc(Cl)cc3)c(C(F)(F)F)c2c1 (centres unmarked) [Example 24, 3-(4-Chlorophenoxy)-6-(hydroxy(1-methyl-1H-imidazol-5-yl)(6-(trifluoromethyl)pyridin-3-yl)methyl)-4-(trifluoromethyl)quinoline-2-carbonitrile] | 55%
12 | CCN(CC)c1nc2ccc(C(O)(c3ccc(Cl)cc3)c3cncn3C)cc2c(C(F)(F)F)c1Oc1ccccc1 (centres unmarked) [Example 29, (4-Chlorophenyl)(2-(diethylamino)-3-phenoxy-4-(trifluoromethyl)quinolin-6-yl)(1-methyl-1H-imidazol-5-yl)methanol.TFA] | 93%
13 | COCCN(C)c1nc2ccc(C(O)(c3ccc(C(F)(F)F)nc3)c3cncn3C)cc2c(Cl)c1Oc1ccccc1 (centres unmarked) [Example 34, (4-Chloro-2-((2-methoxyethyl)(methyl)amino)-3-phenxoyquinolin-6-yl)(1-methyl-1H-imidazol-5-yl)(6-(trifluoromethyl)pyridin-3-yl)methanol.TFA] | 95%
14 | CCN(CC)c1nc2ccc(C(O)(c3ccc(Cl)cc3)c3cncn3C)cc2c(Cl)c1N(C(=O)OC(C)(C)C)c1ccccc1 (centres unmarked) [Example 44, tert-Butyl (4-chloro-6-((4-chlorophenyl)(hydroxyl)(1-methyl-1H-imidazol-5-yl)methyl)-2-(diethylamino)quinolin-3-yl)(phenyl)carbamate.TFA] | 62%
15 | Cn1cncc1C(O)(c1ccc(C(F)(F)F)nc1)c1ccc2nc(Cl)c(Oc3ccc(Cl)cc3)c(C(F)(F)F)c2c1 (centres unmarked) [Example 46, (2-Chloro-3-(4-chlorophenoxy)-4-(trifluoromethyl)quinolin-6-yl)(1-methyl-1H-imidazol-5-yl)(6-(trifluoromethyl)pyridin-3-yl)methanol] | 39%

Next, values leading:

Row | inhibition at 6 µM | SMILES
16 | 86% | COc1nc2ccc(C(O)(c3ccc(Cl)cc3)c3cncn3C)cc2c(Cl)c1Oc1ccccc1 (single isomer, unassigned) [Example 15b, (4-Chloro-2-methoxy-3-phenoxyquinolin-6-yl)(4-chlorophenyl)(1-methyl-1H-imidazol-5-yl)methanol]
17 | 97% | CCN(CC)c1nc2ccc(C(O)(c3ccc(C(F)(F)F)nc3)c3cncn3C)cc2c(Cl)c1Oc1ccc(F)cc1 (centres unmarked) [Example 9a]
18 | 95% | CCOc1nc2ccc(C(O)(c3ccc(OC)nc3)c3cncn3C)cc2c(Cl)c1Oc1ccccc1 (centres unmarked) [Example 10a, (4-Chloro-2-ethoxy-3-phenoxyquinolin-6-yl)(6-methoxypyridin-3-yl)(1-methyl-1H-imidazol-5-yl)methanol.TFA]
19 | 55% | CCOc1nc2ccc(C(O)(c3ccc(C(F)(F)F)nc3)c3cncn3C)cc2c(Cl)c1Oc1ccc(F)cc1 (centres unmarked) [Example 14a, (4-Chloro-2-ethoxy-3-(4-fluorophenoxy)quinolin-6-yl)(1-methyl-1H-imidazol-5-yl)(6-(trifluoromethyl)pyridin-3-yl)methanol]
20 | 83% | COc1nc2ccc(C(O)(c3ccc(Cl)cc3)c3cncn3C)cc2c(Cl)c1Oc1ccccc1 (centres unmarked) [Example 15a, (4-Chloro-2-methoxy-3-phenoxyquinolin-6-yl)(4-chlorophenyl)(1-methyl-1H-imidazol-5-yl)methanol]
21 | 55% | Cn1cncc1C(O)(c1ccc(C(F)(F)F)nc1)c1ccc2nc(C#N)c(Oc3ccccc3)c(C#N)c2c1 (centres unmarked) [Example 22a, 6-(Hydroxy(1-methyl-1H-imidazol-5-yl)(6-(trifluoromethyl)pyridin-3-yl)methyl)-3-phenoxyquinoline-2,4-dicarbonitrile]
22 | 75% | CCOc1nc2ccc(C(O)(c3ccc(C(F)(F)F)nc3)c3cncn3C)cc2c(C(F)(F)F)c1Oc1ccc(Cl)cc1 (centres unmarked) [Example 25a, (3-(4-Chlorophenoxy)-2-ethoxy-4-(trifluoromethyl)quinolin-6-yl)(1-methyl-1H-imidazol-5-yl)(6-(trifluoromethyl)pyridin-3-yl)methanol]
23 | 102% | Cn1cncc1C(O)(c1ccc(Cl)cc1)c1ccc2nc(N3CCC3)c(Oc3ccc(C#N)cc3)c(Cl)c2c1 (centres unmarked) [Example 32a, 4-((2-(Azetidin-1-yl)-4-chloro-6-((4-chlorophenyl)(hydroxyl)(1-methyl-1H-imidazol-5-yl)methyl)quinolin-3-yl)oxy)benzonitrile]
